Test results as given in the supplement of paper PMC4862054.

Experiments:
Experiment in all cases: normalised response (% of control), CellTiter-Glo; higher = more viable cells (100 = DMSO, 0 = benzethonium chloride kill control)
Details in all cases: incubation time: 72 h
[1] = test system: BT-474
Method in brief: (§1)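 CellTox Green fluorescence (485/520 nm) and, after 10 min at room temperature, CellTiter-Glo luminescence were read from breast cancer cell lines incubated 72 h in 384-well plates. Cells were seeded as 20 µl suspension onto compound at 5 concentrations in 10-fold steps over a 10,000-fold range chosen per compound. Each plate was normalised to 0.1 % DMSO (100) and a positive kill control (0). Values are normalised signals, one per concentration.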

[2] = test system: BT-549
Method in brief: as §1

[3] = test system: CAL-120
Method in brief: as §1

[4] = test system: CAL-148
Method in brief: as §1

[5] = test system: CAL-51
Method in brief: as §1

[6] = test system: CAL-85-1
Method in brief: as §1

[7] = test system: DU-4475
Method in brief: as §1

[8] = test system: HCC1143
Method in brief: as §1

[9] = test system: HCC1599
Method in brief: as §1

[10] = test system: HCC1937
Method in brief: as §1

[11] = test system: HDQ-P1
Method in brief: as §1

[12] = test system: Hs578T
Method in brief: as §1

[13] = test system: MCF-10A
Method in brief: as §1

[14] = test system: MDA-MB-231
Method in brief: as §1

[15] = test system: MDA-MB-436
Method in brief: as §1

[16] = test system: MDA-MB-453
Method in brief: as §1

[17] = test system: MDA-MB-468
Method in brief: as §1

[18] = test system: MFM-223
Method in brief: as §1

[19] = test system: SK-BR-3
Method in brief: as §1

Row | Structure (SMILES) | normalised response [1] | normalised response [2] | normalised response [3] | normalised response [4] | normalised response [5] | normalised response [6] | normalised response [7] | normalised response [8] | normalised response [9] | normalised response [10] | normalised response [11] | normalised response [12] | normalised response [13] | normalised response [14] | normalised response [15] | normalised response [16] | normalised response [17] | normalised response [18] | normalised response [19]
1 | COc1cc2c(cc1-c1c(C)noc1C)ncc1[nH]c(=O)n([C@H](C)c3ccccn3)c12 [I-BET151] (1 nM) | 96.7% | 99.7% | 101% | 104% | 81.1% | 103% | 103% | 105% | 103% | 96.6% | 106% | 101% | 109% | 99.5% | 98.5% | 102% | 95.9% | 97.8% | 97.8%
2 | CC(C)n1nc(-c2ccc3oc(N)nc3c2)c2c(N)ncnc21 [INK128] (0.1 nM) | 90.8% | 93.9% | 91% | 92.2% | 106% | 96.6% | 90.2% | 86.4% | 94.7% | 89.1% | 87.9% | 96.3% | 90.6% | 92.1% | 79.1% | 101% | 93.3% | 89.8% | 96%
3 | CC(C)n1nc(-c2ccc3oc(N)nc3c2)c2c(N)ncnc21 [INK128] (1 nM) | 88.9% | 89% | 92.2% | 93.2% | 116% | 96.7% | 94.1% | 94.5% | 100% | 96.9% | 95.8% | 98.9% | 96.2% | 95.9% | 96.5% | 88.3% | 93.6% | 90.1% | 85.9%
4 | O=NN(CCCl)C(=O)NC1CCCCC1 [Lomustine] (10 nM) | 105% | 98.3% | 98.3% | 98.6% | 120% | 95% | 102% | 103% | 83.8% | 102% | 102% | 108% | 107% | 99.4% | 95.2% | 106% | 92.5% | 104% | 90.8%
5 | O=C(O)CC[C@H]1CC[C@@](c2cc(F)ccc2F)(S(=O)(=O)c2ccc(Cl)cc2)CC1 [MK-0752] (1 nM) | 103% | 93% | 102% | 107% | 87.3% | 102% | 104% | 99.5% | 97.5% | 98.7% | 95.6% | 104% | 113% | 102% | 101% | 111% | 98.5% | 112% | 102%
6 | NC1(c2ccc(-c3nc4ccn5c(=O)[nH]nc5c4cc3-c3ccccc3)cc2)CCC1 [MK-2206] (1 nM) | 111% | 92.9% | 99.2% | 112% | 80.6% | 95.9% | 104% | 103% | 105% | 92.6% | 96.5% | 96.5% | 106% | 103% | 104% | 100% | 101% | 109% | 112%
7 | NC(=O)c1cccc2cn(-c3ccc([C@@H]4CCCNC4)cc3)nc12 [MK-4827] (10 nM) | 110% | 101% | 107% | 108% | 125% | 106% | 104% | 107% | 104% | 96.9% | 93.7% | 98.4% | 114% | 101% | 107% | 105% | 98.6% | 104% | 83.4%
8 | N[C@@H](Cc1ccc(N(CCCl)CCCl)cc1)C(=O)O [Melphalan] (1.25 nM) | 98.7% | 97.8% | 100% | 93.2% | 114% | 96.5% | 95.5% | 98.7% | 116% | 103% | 106% | 109% | 104% | 100% | 109% | 93.3% | 91.7% | 95.1% | 96.3%
9 | N[C@@H](Cc1ccc(N(CCCl)CCCl)cc1)C(=O)O [Melphalan] (12.5 nM) | 103% | 100% | 101% | 96.2% | 75.2% | 99.4% | 99.3% | 95.3% | 133% | 102% | 103% | 104% | 101% | 102% | 103% | 104% | 95.4% | 99.5% | 95%
10 | O=C(c1cc(Cc2n[nH]c(=O)c3ccccc23)ccc1F)N1CCN(C(=O)C2CC2)CC1 [Olaparib] (10 nM) | 97.1% | 98.2% | 93.2% | 98.9% | 110% | 108% | 102% | 95.6% | 113% | 101% | 96.2% | 98.6% | 99.5% | 90.2% | 91.8% | 97.8% | 101% | 93% | 100%
